Experimental data reported in ChEMBL document CHEMBL1201862, “PubChem BioAssay data set” (2004).
Activity calls are given as the source filed them.

Legend:
[1] = tested on: Escherichia coli; assay: microbe, parasite or virus in culture
[2] = NIH3T3 cell viability loss – ATP luminescence, mouse fibroblasts, counter-screen, dose response (AID 2010); type: functional, cell-based;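 also: cells exposed to compound for about 90 hours before reading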
[3] = biological target: T1, Alkaline phosphatase, tissue-nonspecific isozyme (Homo sapiens, UniProt P05186); assay: TNAP enzyme inhibition by screening hits, dose response, selectivity assay for mouse IAP inhibitor project, biochemical, human TNAP, uHTS hits (AID 488906); type: functional
T1 sequence (P05186 whole entry): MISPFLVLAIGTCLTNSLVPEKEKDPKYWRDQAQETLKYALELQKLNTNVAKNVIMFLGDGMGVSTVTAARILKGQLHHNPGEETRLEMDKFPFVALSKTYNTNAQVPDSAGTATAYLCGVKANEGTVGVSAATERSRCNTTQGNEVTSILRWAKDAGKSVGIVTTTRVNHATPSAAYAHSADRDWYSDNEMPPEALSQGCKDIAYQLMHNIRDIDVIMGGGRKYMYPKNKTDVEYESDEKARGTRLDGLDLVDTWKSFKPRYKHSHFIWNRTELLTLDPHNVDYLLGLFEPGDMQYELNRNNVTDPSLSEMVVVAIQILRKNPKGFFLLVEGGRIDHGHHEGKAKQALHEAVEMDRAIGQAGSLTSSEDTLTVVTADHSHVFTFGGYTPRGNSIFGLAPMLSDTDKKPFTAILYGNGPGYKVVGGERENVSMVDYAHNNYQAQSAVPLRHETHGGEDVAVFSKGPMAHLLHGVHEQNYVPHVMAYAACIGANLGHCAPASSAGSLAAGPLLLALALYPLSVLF

[4] = biological target: Intestinal-type alkaline phosphatase (Mus musculus, UniProt P24822); assay: PubChem AID 488785; type: functional
[5] = biological target: Intestinal-type alkaline phosphatase (Homo sapiens, UniProt P09923); assay: inhibition of human intestinal alkaline phosphatase – biochemical, dose response (AID 488876); type: functional
[6] = Trypanosoma cruzi growth suppression in host cells – NIH3T3 host cells, beta-gal luminescence, confirmation (AID 2044); type: functional, cell-based;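 also: intracellular parasites grown in NIH/3T3 mouse fibroblasts as host cells; luminescent beta-galactosidase reporter signal from transgenic T. cruzi replicating inside host cells; inhibitors lower the luminescence signal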
[7] = biological target: Genome polyprotein (dengue virus type 2, UniProt P29990); assay: flavivirus cap methylation enzyme inhibition – biochemical, confirmation dose response, primary screen (AID 588689); type: functional
[8] = biological target: Dual specificity tyrosine-phosphorylation-regulated kinase 1A (Rattus norvegicus, UniProt Q63470); type: biochemical, Homo sapiens
[9] = tested on: HEK293; assay: cells; details: Homo sapiens
[10] = tested on: HEK293; assay: cells; details: Homo sapiens; remark: listed apart in the source
[11] = biological target: T2, Cytochrome P450 3A4 (Homo sapiens, UniProt P08684);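 also: CYP3A4 tested as one member of a cytochrome P450 panel screen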
[12] = tested on: Escherichia coli; assay: microbe, parasite or virus in culture; remark: listed apart in the source
[13] = biological target: T3, Protein skinhead-1 (Caenorhabditis elegans, UniProt P34707); type: functional
T3 sequence (P34707 whole entry): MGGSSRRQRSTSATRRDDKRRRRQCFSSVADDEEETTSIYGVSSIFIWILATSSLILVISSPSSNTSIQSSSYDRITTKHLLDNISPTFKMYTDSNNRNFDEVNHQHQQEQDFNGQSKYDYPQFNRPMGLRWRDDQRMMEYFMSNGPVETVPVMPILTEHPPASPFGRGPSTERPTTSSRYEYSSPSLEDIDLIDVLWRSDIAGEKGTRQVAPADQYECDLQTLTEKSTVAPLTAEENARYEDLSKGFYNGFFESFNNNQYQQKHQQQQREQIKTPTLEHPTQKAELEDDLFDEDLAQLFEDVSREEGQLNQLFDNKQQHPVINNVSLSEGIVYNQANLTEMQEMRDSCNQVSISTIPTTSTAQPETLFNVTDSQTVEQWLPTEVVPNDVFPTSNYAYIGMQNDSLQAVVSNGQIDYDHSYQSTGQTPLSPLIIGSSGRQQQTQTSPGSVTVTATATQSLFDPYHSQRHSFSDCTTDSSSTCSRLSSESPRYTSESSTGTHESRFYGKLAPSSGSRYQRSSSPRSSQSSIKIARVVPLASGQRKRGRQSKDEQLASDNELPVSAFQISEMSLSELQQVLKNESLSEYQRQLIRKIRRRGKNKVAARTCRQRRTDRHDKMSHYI

[14] = biological target: Phospholipase A2 (Homo sapiens, UniProt P04054); type: functional;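 also: confirmatory dose-response counterscreen on phospholipase A2, testing hits that came from an ultra-high-throughput screen for ATG4B inhibitors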
[15] = biological target: Cysteine protease ATG4B (Homo sapiens, UniProt Q9Y4P1); type: functional;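 also: Fluorescence-based dose-response confirmation assay measuring inhibition of ATG4B activity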
[16] = biological target: T4, Nuclear receptor subfamily 0 group B member 1 (Homo sapiens, UniProt P51843); assay: Luminescence-based cell-based high throughput dose response assay for inhibitors of the orphan nuclear receptor subfamily 0, group B, member 1 (DAX1; NR0B1). [Related pubchem assays (depositor defined):AID504766, AID504790]; type: functional
T4 sequence (P51843 whole entry): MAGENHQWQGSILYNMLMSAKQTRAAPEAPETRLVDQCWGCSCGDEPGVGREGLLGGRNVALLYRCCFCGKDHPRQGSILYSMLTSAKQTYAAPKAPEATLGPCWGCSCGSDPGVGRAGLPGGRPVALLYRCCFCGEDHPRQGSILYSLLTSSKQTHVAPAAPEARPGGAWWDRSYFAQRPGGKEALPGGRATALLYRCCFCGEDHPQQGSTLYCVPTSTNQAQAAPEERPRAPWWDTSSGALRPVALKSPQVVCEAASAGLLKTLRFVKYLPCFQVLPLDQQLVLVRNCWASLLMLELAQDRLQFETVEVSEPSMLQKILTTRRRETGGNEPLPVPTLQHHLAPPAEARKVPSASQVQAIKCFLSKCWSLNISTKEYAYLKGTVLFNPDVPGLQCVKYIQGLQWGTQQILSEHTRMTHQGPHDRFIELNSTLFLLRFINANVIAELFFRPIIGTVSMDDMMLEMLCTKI

[17] = tested on: HEK293; assay: cells; type: functional, cell-based; details: Homo sapiens
[18] = biological target: Cytochrome P450 2C19 (Homo sapiens, UniProt P33261); assay: Cytochrome panel assay with activity outcomes. Panel member name: p450-cyp2c19 Compounds with AC50 equal or less than 10 uM are considered active; type: functional
[19] = biological target: CAAX prenyl protease 2 (Saccharomyces cerevisiae S288c, UniProt Q03530); type: biochemical
[20] = biological target: CAAX prenyl protease 2 (Homo sapiens, UniProt Q9Y256); assay: inhibition of Ras-converting CAAX protease Rce1 – biochemical, yeast membranes, quenched-peptide fluorescence, cherry-pick, dose response (AID 588849)
[21] = tested on: H4; assay: Luminescence Cell-Based Dose Response HTS to Identify Activators of 5'UTR Stem-Loop Driven Prion Protein mRNA Translation in H4 Neuroglioblastoma Cells. [Related pubchem assays: 1829 (Project Summary), 1814 (Primary HTS)]; type: functional; details: Homo sapiens
[22] = tested on: HeLa; assay: ATP-based viability loss in HeLa cells – cell-based, CellTiter-Glo luminescence, cherry-pick samples, cytotoxicity control for MITF activator project, dose response (AID 540259); type: functional; details: Homo sapiens
[23] = biological target: Induced myeloid leukemia cell differentiation protein Mcl-1 (Homo sapiens, UniProt Q07820); type: functional
[24] = biological target: Sphingosine 1-phosphate receptor 2 (Homo sapiens, UniProt O95136); assay: Dose Response Cell Based Assay for Agonists of the S1P2 Receptor. [Related pubchem assays: 729, 736, 843 ]; type: functional
[25] = biological target: Lysine-specific demethylase 4A (Homo sapiens, UniProt O75164); assay: inhibition of JMJD2A H3K9me3 demethylation – biochemical, DELFIA europium, cherry-picked samples, selectivity assay for GASC-1 inhibitor project, dose response (AID 488840)
[26] = tested on: Streptococcus; assay: GAS UMAA2166 growth inhibition – luminescence, BacTiterGlo, counter-screen for streptokinase expression inhibitor project, dose response (AID 1915); type: functional, organism-based;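 also: potency for reduction of bacterial viability or growth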
[27] = tested on: Streptococcus sp. 'group A'; assay: Streptococcus pyogenes SK(-)GAS viability under kanamycin – luminescence, BacTiterGlo, confirmation, counter-screen for streptokinase expression inhibitor project, dose response (AID 1900); type: functional, organism-based
[28] = biological target: T2, Cytochrome P450 3A4; remark: listed apart in the source
[29] = biological target: Mu-type opioid receptor (Homo sapiens, UniProt P35372); assay: (§1) Counterscreen for agonists of heterodimerization of the mu 1 (OPRM1) and delta 1 (OPRD1) opioid receptors: Luminescence-based cell-based high throughput dose response assay to identify agonists of OPRM1 homodimerization.; type: functional
[30] = biological target: Delta-type opioid receptor (Homo sapiens, UniProt P41143); assay: as §1, with “of OPRD1” for “of OPRM1”, “homodimerization. [Related pubchem assays (depositor defined):AID504326, AID504355, AID504692, AID504904, AID504905]” for “homodimerization.”; type: functional
[31] = biological target: G-protein coupled receptor 55 (Homo sapiens, UniProt Q9Y2T6); assay: inhibition of LPI-stimulated GPR55 beta-arrestin translocation – imaging, U2OS, beta-arrestin-GFP, LPI agonist, primary screen (AID 2013); type: functional;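 also: antagonist potency measured as reduced agonist-driven arrestin aggregation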
[32] = tested on: Vero; assay: cells; type: functional; details: Chlorocebus sabaeus
[33] = biological target: 5-hydroxytryptamine receptor 5A (Homo sapiens, UniProt P47898); assay: Counterscreen for agonists of OPRM1-OPRD1 heterodimerization: luminescence-based cell-based high throughput dose response assay to identify agonists of 5-hydroxytryptamine (serotonin) 5A receptor (HTR5A). [Related pubchem assays (depositor defined):AID504326, AID504355, AID504692, AID504904, AID504905]; type: functional
5-hydroxytryptamine receptor 5A, sequence (P47898 whole entry): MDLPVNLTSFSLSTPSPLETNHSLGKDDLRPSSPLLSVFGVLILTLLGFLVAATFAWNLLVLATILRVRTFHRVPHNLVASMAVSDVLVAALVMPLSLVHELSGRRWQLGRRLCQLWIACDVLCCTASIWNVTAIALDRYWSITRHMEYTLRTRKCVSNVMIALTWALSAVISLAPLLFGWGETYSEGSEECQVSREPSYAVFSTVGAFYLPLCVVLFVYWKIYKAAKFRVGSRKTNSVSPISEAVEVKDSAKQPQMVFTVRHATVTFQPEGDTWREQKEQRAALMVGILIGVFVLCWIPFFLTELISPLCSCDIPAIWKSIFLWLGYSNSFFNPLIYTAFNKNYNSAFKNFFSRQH

T2 sequence (P08684 whole entry): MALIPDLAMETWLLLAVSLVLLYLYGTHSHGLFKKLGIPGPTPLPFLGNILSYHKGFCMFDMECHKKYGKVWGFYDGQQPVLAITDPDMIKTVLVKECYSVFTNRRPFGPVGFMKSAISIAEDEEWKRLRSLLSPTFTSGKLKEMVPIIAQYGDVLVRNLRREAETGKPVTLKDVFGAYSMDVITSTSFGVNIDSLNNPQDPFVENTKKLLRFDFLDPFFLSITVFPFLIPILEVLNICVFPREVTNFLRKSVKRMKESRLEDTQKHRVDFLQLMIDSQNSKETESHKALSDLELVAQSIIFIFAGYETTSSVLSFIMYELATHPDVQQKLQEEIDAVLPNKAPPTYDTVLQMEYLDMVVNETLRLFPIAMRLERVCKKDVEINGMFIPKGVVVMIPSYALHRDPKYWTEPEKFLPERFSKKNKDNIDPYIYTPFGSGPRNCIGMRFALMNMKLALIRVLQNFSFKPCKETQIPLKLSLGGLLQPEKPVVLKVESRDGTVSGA
Mu-type opioid receptor, sequence (P35372 whole entry): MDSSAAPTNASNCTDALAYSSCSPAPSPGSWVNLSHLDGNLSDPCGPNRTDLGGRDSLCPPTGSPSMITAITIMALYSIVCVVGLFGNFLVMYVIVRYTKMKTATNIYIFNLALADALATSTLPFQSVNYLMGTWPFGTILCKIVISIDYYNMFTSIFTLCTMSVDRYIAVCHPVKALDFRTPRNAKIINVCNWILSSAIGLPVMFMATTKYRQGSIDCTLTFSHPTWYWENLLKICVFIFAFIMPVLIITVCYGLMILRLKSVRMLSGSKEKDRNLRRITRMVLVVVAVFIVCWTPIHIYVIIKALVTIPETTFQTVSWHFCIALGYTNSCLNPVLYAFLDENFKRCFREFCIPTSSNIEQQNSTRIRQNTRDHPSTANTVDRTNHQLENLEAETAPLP
Cysteine protease ATG4B, sequence (Q9Y4P1 whole entry): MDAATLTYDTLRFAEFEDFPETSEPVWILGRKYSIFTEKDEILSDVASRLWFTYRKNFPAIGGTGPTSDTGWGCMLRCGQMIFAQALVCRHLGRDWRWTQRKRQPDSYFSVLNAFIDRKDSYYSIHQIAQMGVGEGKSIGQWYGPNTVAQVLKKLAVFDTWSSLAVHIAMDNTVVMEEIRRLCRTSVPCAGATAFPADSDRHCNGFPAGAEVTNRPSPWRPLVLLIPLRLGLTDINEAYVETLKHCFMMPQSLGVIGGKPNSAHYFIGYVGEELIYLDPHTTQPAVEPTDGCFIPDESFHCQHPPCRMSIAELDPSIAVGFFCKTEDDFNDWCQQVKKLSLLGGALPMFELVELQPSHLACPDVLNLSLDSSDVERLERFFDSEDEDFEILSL
Delta-type opioid receptor, sequence (P41143 whole entry): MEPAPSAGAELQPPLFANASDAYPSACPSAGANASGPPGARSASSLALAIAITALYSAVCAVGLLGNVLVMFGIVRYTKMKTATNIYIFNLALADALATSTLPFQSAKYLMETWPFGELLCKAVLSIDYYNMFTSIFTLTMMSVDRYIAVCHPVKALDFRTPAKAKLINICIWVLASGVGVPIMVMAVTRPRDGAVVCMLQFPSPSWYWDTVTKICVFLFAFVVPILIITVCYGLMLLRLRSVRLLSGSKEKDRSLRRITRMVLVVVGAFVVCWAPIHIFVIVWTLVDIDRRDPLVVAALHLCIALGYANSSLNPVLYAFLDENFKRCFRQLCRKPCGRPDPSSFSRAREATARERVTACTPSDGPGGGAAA
Phospholipase A2, sequence (P04054 whole entry): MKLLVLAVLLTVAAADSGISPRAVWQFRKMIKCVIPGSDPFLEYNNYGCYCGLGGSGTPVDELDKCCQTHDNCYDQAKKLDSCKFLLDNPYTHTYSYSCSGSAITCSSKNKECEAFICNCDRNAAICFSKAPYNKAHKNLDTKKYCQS
Intestinal-type alkaline phosphatase (Homo sapiens, UniProt P09923), sequence (P09923 whole entry): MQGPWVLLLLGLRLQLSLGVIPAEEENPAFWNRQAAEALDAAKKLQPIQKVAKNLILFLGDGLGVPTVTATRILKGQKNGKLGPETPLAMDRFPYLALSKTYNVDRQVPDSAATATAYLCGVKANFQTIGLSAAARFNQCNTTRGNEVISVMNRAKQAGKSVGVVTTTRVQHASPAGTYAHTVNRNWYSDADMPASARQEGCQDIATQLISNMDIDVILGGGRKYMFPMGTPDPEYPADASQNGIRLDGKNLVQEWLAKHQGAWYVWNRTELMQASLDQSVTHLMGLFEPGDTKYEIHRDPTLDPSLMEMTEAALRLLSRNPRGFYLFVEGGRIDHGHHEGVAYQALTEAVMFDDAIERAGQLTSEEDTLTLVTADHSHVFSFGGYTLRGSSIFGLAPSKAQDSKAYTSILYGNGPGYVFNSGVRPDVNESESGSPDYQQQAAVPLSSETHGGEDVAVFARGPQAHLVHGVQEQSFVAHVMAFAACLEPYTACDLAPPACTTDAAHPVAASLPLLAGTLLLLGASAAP
Cytochrome P450 2C19, sequence (P33261 whole entry): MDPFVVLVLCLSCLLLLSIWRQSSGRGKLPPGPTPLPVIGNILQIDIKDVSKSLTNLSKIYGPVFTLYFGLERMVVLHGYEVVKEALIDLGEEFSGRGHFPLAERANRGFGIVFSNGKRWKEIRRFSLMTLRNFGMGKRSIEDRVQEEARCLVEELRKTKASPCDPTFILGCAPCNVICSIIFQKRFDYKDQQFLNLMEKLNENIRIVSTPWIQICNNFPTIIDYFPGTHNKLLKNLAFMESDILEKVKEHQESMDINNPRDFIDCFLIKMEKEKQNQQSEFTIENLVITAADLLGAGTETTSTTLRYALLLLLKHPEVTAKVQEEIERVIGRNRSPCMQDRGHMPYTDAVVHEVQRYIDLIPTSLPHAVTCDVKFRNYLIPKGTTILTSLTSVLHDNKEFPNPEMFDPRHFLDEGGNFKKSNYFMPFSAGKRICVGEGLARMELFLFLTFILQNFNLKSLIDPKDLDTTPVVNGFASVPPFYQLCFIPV
Intestinal-type alkaline phosphatase (Mus musculus, UniProt P24822), sequence (P24822 whole entry): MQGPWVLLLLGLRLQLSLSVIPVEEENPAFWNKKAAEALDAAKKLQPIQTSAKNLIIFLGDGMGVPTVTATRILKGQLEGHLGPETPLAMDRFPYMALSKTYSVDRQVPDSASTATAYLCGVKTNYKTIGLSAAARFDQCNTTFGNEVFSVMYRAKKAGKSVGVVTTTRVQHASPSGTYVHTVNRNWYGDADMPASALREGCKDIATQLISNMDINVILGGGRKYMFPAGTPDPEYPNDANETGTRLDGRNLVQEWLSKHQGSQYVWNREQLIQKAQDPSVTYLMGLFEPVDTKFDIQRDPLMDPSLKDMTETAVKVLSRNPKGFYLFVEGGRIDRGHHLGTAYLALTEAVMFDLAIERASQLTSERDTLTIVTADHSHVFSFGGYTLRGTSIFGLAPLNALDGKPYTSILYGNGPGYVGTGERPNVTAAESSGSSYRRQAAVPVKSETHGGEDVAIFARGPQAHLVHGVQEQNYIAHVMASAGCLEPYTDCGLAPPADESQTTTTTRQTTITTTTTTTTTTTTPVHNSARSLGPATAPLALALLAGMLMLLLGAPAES
Lysine-specific demethylase 4A, sequence (O75164 whole entry): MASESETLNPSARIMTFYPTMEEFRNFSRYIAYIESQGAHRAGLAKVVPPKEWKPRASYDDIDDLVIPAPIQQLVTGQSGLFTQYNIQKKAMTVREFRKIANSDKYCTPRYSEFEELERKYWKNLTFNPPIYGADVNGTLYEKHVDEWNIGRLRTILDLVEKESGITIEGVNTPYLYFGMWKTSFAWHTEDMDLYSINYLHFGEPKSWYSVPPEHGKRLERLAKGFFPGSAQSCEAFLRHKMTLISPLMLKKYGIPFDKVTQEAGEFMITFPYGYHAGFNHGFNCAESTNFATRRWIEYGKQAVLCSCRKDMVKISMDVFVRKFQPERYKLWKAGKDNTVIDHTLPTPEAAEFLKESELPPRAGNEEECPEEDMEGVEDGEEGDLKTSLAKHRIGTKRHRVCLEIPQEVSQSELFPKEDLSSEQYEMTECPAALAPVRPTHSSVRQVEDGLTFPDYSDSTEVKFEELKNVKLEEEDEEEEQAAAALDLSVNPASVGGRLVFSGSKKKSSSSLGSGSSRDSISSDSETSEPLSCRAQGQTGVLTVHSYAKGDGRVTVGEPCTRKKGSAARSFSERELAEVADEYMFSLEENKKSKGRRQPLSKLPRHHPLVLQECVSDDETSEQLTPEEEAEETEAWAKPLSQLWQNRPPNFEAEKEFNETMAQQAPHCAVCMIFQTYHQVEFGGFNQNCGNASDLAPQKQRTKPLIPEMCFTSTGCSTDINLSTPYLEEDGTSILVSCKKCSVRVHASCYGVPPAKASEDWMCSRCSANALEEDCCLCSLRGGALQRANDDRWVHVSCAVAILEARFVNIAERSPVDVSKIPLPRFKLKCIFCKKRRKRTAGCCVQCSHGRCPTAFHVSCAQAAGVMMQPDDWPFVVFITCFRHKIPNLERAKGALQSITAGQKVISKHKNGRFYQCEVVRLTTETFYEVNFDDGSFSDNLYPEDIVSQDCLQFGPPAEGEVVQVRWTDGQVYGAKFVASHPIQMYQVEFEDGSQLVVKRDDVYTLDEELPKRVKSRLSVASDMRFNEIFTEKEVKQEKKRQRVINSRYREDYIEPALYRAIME

CCOC(=O)[C@H]1[C@H]2COc3ccc(OC)cc3[C@H]2N2C(=O)CN(Cc3ccccc3)C(=O)[C@@]12C
AC50 [1]: 54.9 µM (active)

CCCn1ncc(CN2CCC(C(=O)Nc3cccc(-c4cccc(F)c4)c3)CC2)c1C
EC50 [2]: 3.89 µM (active) | IC50 [3]: 11.8 µM (active) | IC50 [4]: 0.902 µM (active) | IC50 [5]: > 100 µM (inactive) | EC50 [6]: 2.33 µM (active)

NS(=O)(=O)c1ccc(N=Nc2c(O)c(C(=O)O)cc3ccccc23)cc1
IC50 [7]: > 100 µM (active) | AC50 [8]: 3.59 µM (active)

CC(C)(C)OC(=O)CC(S(=O)(=O)c1ccccc1)S(=O)(=O)c1ccccc1
EC50 [9]: > 59.6 µM (inactive) | EC50 [10]: > 59.6 µM (inactive)

Cc1ccccc1C(=O)N1CCN(c2ccc([N+](=O)[O-])c(N3CCOCC3)c2)CC1
AC50 [11]: inconclusive

Cc1cccc(N(CC(=O)NC2CCCC2)C(=O)CCCC(=O)Nc2ccccn2)c1
AC50 [12]: 25 µM (active)

CC(=O)Nc1nc2ccc(Br)cc2s1
AC50 [8]: 3.33 µM (active) | IC50 [13]: > 100 µM (inactive)

Cc1cc(OC(=O)c2cccs2)ccc1C(C)C
IC50 [14]: 3.74 µM (active) | IC50 [15]: 5.44 µM (active)

COc1cc(SC)ccc1C(=O)Nc1ccc2c(c1)OCO2
IC50 [16]: > 67.6 µM (inactive) | IC50 [17]: > 67.6 µM (inactive)

Cc1ccc(C(=O)C2CCNCC2)cc1.Cl
AC50 [11]: inconclusive | AC50 [18]: inconclusive

CCn1c(C)cc(C(=O)COC(=O)c2cccnc2SC)c1C
IC50 [16]: > 67.5 µM (inactive) | IC50 [17]: > 67.5 µM (inactive)

COc1ccc2cc(C(=O)C3CCCN(C(=O)c4cc(=O)n(C)c(=O)n4C)C3)ccc2c1 (stereo not given)
AC50 [19]: 10.4 µM (active) | AC50 [20]: 14.2 µM (active)

O=C1CCCc2nc3c(cc21)C(O)Oc1c-3ccc2ccccc12 (stereo not given)
EC50 [21]: > 120 µM (not active) | AC50 [22]: 51 µM (active)

Cc1ccc(/N=C2N=C(O)/C(=C/C=C/c3ccco3)S\2)cc1C
IC50 [14]: 5.94 µM (active) | IC50 [23]: 13.4 µM (active) | IC50 [15]: 6.65 µM (active)

O=c1c(-c2nc3ccccc3s2)cccn1Cc1ccccc1
EC50 [24]: 7.37 µM (active) | AC50 [22]: 56.9 µM (active)

O=C(O)c1cc(O)c2c(c1)[C@@H]([C@H]1c3cc(C(=O)O)cc(O)c3C(=O)c3c(O[C@@H]4O[C@H](CO)[C@@H](O)[C@H](O)[C@H]4O)cccc31)c1cccc(O[C@@H]3O[C@H](CO)[C@@H](O)[C@H](O)[C@H]3O)c1C2=O [SENNOSIDE B]
AC50 [25]: 3.69 µM (active)

COc1c(N2CCN(C(S)=Nc3ccccc3F)C(C)C2)c(F)cc2c(=O)c(C(=O)O)cn(C3CC3)c12 (stereo not given)
AC50 [12]: 0.518 µM (active) | EC50 [26]: 3.27 µM (active) | EC50 [27]: 2.24 µM (active)

Fc1cccc(NC(S)=NCCCN2CCOCC2)c1
AC50 [1]: 17.3 µM (active) | AC50 [28]: 17.8 µM (inconclusive) | AC50 ([18]; read-out: AC50): 17.8 µM (inconclusive)

Cc1cc(/C=C2\SC(Nc3ccccc3)=NC2=O)c(C)n1-c1ccc(S(N)(=O)=O)cc1
EC50 [29]: > 92.5 µM (inactive) | EC50 [30]: 3.03 µM (active) | IC50 [31]: 1.66 µM (active) | CC50 [32]: 7.44 µM (active) | EC50 [33]: > 92.5 µM (inactive)

CCn1nnc(NC(=O)c2cc3ccccc3o2)n1
AC50 [25]: 48.3 µM (active)

C[N+](C)(C)C(Cc1ccccc1)C(=O)[O-] (stereo not given)
IC50 [3]: 60.4 µM (active) | IC50 [4]: 4.35 µM (active) | IC50 [5]: > 100 µM (inactive)

CCC(=O)OC(Cc1ccccc1)(c1ccccc1)[C@H](C)CN(C)C (stereo not given in full)
EC50 [29]: > 92.5 µM (inactive) | EC50 [30]: 86.4 µM (inactive) | EC50 [33]: > 92.5 µM (inactive)
